Data from US11976083B2, “Inhibitors of peptidylarginine deiminases” (Gilead Sciences, Inc., priority 2020, dated 2024).

Target: T1, human PAD4 (Homo sapiens, UniProt Q9UM07)
T1 construct: human PAD4 (NM_012387), A2-P663, was PCR amplified; His-SUMO (N, cleaved yes); made in house; host or cells: E. coli BL21(DE3)
Assay: In vitro PAD4 BAEE biochemical assay
Conditions: BAEE substrate 3 mM, 5 nM PAD4, 2 mM calcium chloride; geometric mean of multiple experiments
Excerpt: In Vitro PAD4 BAEE Biochemical Assay
The enzymatic activity of human PAD4 was monitored in a biochemical assay in the presence or absence of compounds using the small peptidyl arginine mimic BAEE (Na-Benzoyl-L-arginine ethyl ester hydrochloride) as substrate. PAD4 activity led to deimination of BAEE and release of ammonia. Levels of ammonia were monitored by using an amine coupling reaction and were indicative of PAD4 enzymatic activity.
One hundred nanoliters of test compounds dissolved in DMSO at various concentrations were dispensed into a 384-well black OptiPlate using a Labcyte Echo instrument. Ten microliters of a solution of recombinant PAD4 and calcium chloride diluted in PAD4 assay buffer (50 mM MOPS [3-(N-morpholino) propanesulfonic acid], pH 7.6; 50 mM sodium chloride; 0.05% Tween-20; 2 mM dithiothreitol) was added to the compound-containing plate and was incubated for 30 minutes at 25° C. Ten microliters of a solution of BAEE (Sigma-Aldrich #B4500) diluted in PAD4 assay buffer was then added to start the reaction. Final concentrations were 5 nM PAD4, 2 mM calcium chloride, and 3 mM BAEE. The reaction mixture was incubated at 25° C. for 2 hours and was stopped with the addition of 10 microliters of a solution of 75 mM EDTA (Ethylenediaminetetraacetic acid) in PAD4 assay buffer. Thirty microliters of detection solution (5 mM o-phthalaldehyde, 50 mM MOPS [3-(N-morpholino) propanesulfonic acid], pH 7.6; 50 mM sodium chloride; 0.05% Tween-20; 5 mM dithiothreitol) was then added and the reaction was incubated for 1 hour at 25° C. The level of fluorescent thiol-substituted isoindole resulting from the reaction of ammonia, o-phthalaldehyde, and dithiothreitol was measured on an Envision plate reader (PerkinElmer) with 405 nm excitation and 535 nm emission.
Data were normalized based on maximum inhibition (50 micromolar of the covalent PAD inhibitor BB-Cl-Amidine (Bicker, K. L.; Anguish, L.; Chumanevich, A. A.; Cameron, M. D.; Cui, X.; Witalison, E.; Subramanian, V.; Zhang, X.; Chumanevich, A. P.; Hofseth, L. J.; Coonrod, S. A.; Thompson, P. R. ACS Med. Chem. Lett. 2012, 3, 1081-1085). and no inhibition (DMSO) controls. Least squares curve fittings were performed using a four-parameter variable slope nonlinear regression model. IC50 is defined as the concentration of compound required to inhibit 50% of maximum activity. IC50 values from multiple experiments were averaged by geometric mean and the standard deviation was calculated.

T1 sequence (Q9UM07 2-663): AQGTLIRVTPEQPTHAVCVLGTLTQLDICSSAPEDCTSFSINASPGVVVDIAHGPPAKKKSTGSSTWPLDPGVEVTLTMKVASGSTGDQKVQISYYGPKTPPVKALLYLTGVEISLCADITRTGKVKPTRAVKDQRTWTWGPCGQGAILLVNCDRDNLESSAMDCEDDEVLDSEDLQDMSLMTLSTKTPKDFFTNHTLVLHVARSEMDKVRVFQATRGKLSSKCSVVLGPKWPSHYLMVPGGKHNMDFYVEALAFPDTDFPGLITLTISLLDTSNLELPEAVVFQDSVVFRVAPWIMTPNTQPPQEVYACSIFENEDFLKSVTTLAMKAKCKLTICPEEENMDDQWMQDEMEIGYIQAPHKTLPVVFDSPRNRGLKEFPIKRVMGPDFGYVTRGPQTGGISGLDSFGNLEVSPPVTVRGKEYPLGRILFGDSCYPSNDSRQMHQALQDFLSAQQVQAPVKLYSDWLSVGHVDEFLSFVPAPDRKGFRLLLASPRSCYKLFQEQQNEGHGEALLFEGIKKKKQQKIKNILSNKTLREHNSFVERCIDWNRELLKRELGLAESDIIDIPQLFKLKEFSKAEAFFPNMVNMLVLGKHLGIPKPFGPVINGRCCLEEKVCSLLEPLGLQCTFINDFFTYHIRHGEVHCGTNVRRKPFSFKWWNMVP

C[C@H]1NC(=O)[C@@H]2C[C@H]2CCCCCn2c(-c3nc4cc(C(=O)N[C@H]5CNCC[C@@H]5F)c(F)c(F)c4n3C3CC3)cc3ccc1nc32 (single isomer, unassigned) [Example 275, 1-cyclopropyl-6,7-difluoro-˜{N}-[(3˜{S},4˜{S})-4-fluoro-3-piperidyl]-2-[(2˜{R},5˜{R},7˜{R})-2-methyl-4-oxo-3,13,19-triazatetracyclo[11.5.2.0^{5,7}.0^{16,20}]icosa-1(19),14,16(20),17-tetraen-14-yl]benzimidazole-5-carboxamide]
IC50: 24 nM

COc1cc(C(=O)N2CCC[C@@H](N)C2)cc2nc(-c3cc4ccc5nc4n3C[C@H]3C[C@H]3COC[C@@H](C)C(=O)N[C@@H]5C)n(C)c12 (single isomer, unassigned) [Example 312, (3˜{S},5˜{R},9˜{R},12˜{R})-18-[5-[(3˜{R})-3-aminopiperidine-1-carbonyl]-7-methoxy-1-methyl-benzimidazol-2-yl]-9,12-dimethyl-7-oxa-1,11,20-triazatetracyclo[11.5.2.0^{3,5}.0^{16,19}]icosa-13(20),14,16(19),17-tetraen-10-one]
IC50: 56 nM

COc1cc(C(=O)N2CCC[C@@H](N)C2)cc2nc(-c3cc4ccc5nc4n3C[C@H]3C[C@H]3COC[C@H](C)C(=O)N[C@@H]5C)n(C)c12 (single isomer, unassigned) [Example 313, (3˜{S},5˜{R},9˜{S},12˜{R})-18-[5-[(3˜{R})-3-aminopiperidine-1-carbonyl]-7-methoxy-1-methyl-benzimidazol-2-yl]-9,12-dimethyl-7-oxa-1,11,20-triazatetracyclo[11.5.2.0^{3,5}.0^{16,19}]icosa-13(20),14,16(19),17-tetraen-10-one]
IC50: 85 nM

COc1cc(C(=O)N2[C@H]3CC[C@@H]2[C@H](N)C3)cc2nc(-c3cc4ccc5nc4n3C[C@H]3C[C@H]3COCCC(=O)N[C@@H]5C)c(C)n12 (single isomer, unassigned) [Example 327, (3˜{S},5˜{R},12˜{R})-18-[7-[(1˜{R},2˜{R},4˜{S})-2-amino-7-azabicyclo[2.2.1]heptane-7-carbonyl]-5-methoxy-3-methyl-imidazo[1,2-a]pyridin-2-yl]-12-methyl-7-oxa-1,11,20-triazatetracyclo[11.5.2.0^{3,5}.0^{16,19}]icosa-13(20),14,16(19),17-tetraen-10-one]
IC50: 12 nM

COc1cc(C(=O)N2[C@H]3CC[C@@H]2[C@H](N)C3)cc2nc(-c3cc4ccc5nc4n3C[C@@H]3C[C@@H]3COCCC(=O)N[C@@H]5C)c(C)n12 (single isomer, unassigned) [Example 328, (3˜{R},5˜{S},12˜{R})-18-[7-[(1˜{R},2˜{R},4˜{S})-2-amino-7-azabicyclo[2.2.1]heptane-7-carbonyl]-5-methoxy-3-methyl-imidazo[1,2-a]pyridin-2-yl]-12-methyl-7-oxa-1,11,20-triazatetracyclo[11.5.2.0^{3,5}.0^{16,19}]icosa-13(20),14,16(19),17-tetraen-10-one]
IC50: 25 nM

COc1cc(C(=O)N2[C@H]3CC[C@@H]2[C@H](N)C3)cc2nc(-c3cc4ccc5nc4n3CCCCCC[C@@H](OC)C(=O)N[C@@H]5C)c(C)n12 (single isomer, unassigned) [Example 334, (8−{R},11−{R})-17-[7-[(1−{R},2˜{R},4˜{S})-2-amino-7-azabicyclo[2.2.1]heptane-7-carbonyl]-5-methoxy-3-methyl-imidazo[1,2-a]pyridin-2-yl]-8-methoxy-11-methyl-1,10,19-triazatricyclo[10.5.2^{15,18}]nonadeca-12(19),13,15(18),16-tetraen-9-one]
IC50: 39 nM

COc1cc(C(=O)N2[C@H]3CC[C@@H]2[C@H](N)C3)cc2nc(-c3cc4ccc5nc4n3CCCCCC[C@H](OC)C(=O)N[C@@H]5C)c(C)n12 (single isomer, unassigned) [Example 335, (8˜{S},11˜{R})-17-[7-[(1˜{R},2˜{R},4˜{S})-2-amino-7-azabicyclo[2.2.1]heptane-7-carbonyl]-5-methoxy-3-methyl-imidazo[1,2-a]pyridin-2-yl]-8-methoxy-11-methyl-1,10,19-triazatricyclo[10.5.2.0^{15,18}]nonadeca-12(19),13,15(18),16-tetraen-9-one]
IC50: 32 nM

COc1cc(C(=O)N[C@H]2CNCC[C@@H]2F)cc2nc(-c3cc4ccc5nc4n3C[C@H]3[C@H](CCCC(C)(C)C(=O)N[C@@H]5C)C3(F)F)n(C)c12 (single isomer, unassigned) [Example 364, 2-[(3˜{R},5˜{S},12˜{R})-4,4-difluoro-9,9,12-trimethyl-10-oxo-1,11,20-triazatetracyclo[11.5.2.0^{3,5}.0^{16,19}]icosa-13(20),14,16(19),17-tetraen-18-yl]-˜{N}-[(3˜{S},4˜{S})-4-fluoro-3-piperidyl]-7-methoxy-1-methyl-benzimidazole-5-carboxamide]
IC50: 203 nM

COc1cc(C(=O)N[C@H]2CNCC[C@@H]2F)cc2nc(-c3cc4ccc5nc4n3C[C@@H]3[C@@H](CCCC(C)(C)C(=O)N[C@@H]5C)C3(F)F)n(C)c12 (single isomer, unassigned) [Example 365, 2-[(3˜{S},5˜{R},12˜{R})-4,4-difluoro-9,9,12-trimethyl-10-oxo-1,11,20-triazatetracyclo[11.5.2.0^{3,5}.0^{16,19}]icosa-13(20),14,16(19),17-tetraen-18-yl]-˜{N}-[(3˜{S},4˜{S})-4-fluoro-3-piperidyl]-7-methoxy-1-methyl-benzimidazole-5-carboxamide]
IC50: 119 nM

C[C@H]1NC(=O)[C@H]2[C@@H](CCCCCn3c(-c4nc5cc(C(=O)N[C@H]6CNCC[C@@H]6F)c(F)cc5n4C)cc4ccc1nc43)C2(F)F (single isomer, unassigned) [Example 381, 2-[(2˜{R},5˜{R},7˜{R})-6,6-difluoro-2-methyl-4-oxo-3,13,19-triazatetracyclo[11.5.2.0^{5,7}.0^{16,20}]icosa-1(19),14,16(20),17-tetraen-14-yl]-6-fluoro-˜{N}-[(3˜{S},4˜{S})-4-fluoro-3-piperidyl]-1-methyl-benzimidazole-5-carboxamide]
IC50: 29 nM

C[C@H]1NC(=O)[C@@H]2[C@@H](CCCCCn3c(-c4nc5cc(C(=O)N[C@H]6CNCC[C@@H]6F)c(F)cc5n4C)cc4ccc1nc43)C2(F)F (single isomer, unassigned) [Example 382, 2-[(2˜{R},5˜{S},7˜{R})-6,6-difluoro-2-methyl-4-oxo-3,13,19-triazatetracyclo[11.5.2.0^{5,7}.0^{16,20}]icosa-1(19),14,16(20),17-tetraen-14-yl]-6-fluoro-˜{N}-[(3˜{S},4˜{S})-4-fluoro-3-piperidyl]-1-methyl-benzimidazole-5-carboxamide]
IC50: 108 nM

C[C@H]1NC(=O)[C@@H]2C[C@H]2CCCCCn2c(-c3nc4cc(C(=O)N[C@H]5CNCC[C@@H]5F)c(F)cc4n3C3C[C@@H]3C(F)F)cc3ccc1nc32 (single isomer, unassigned) [Example 410, 1-[(1~{R},2~{S})-2-(difluoromethyl)cyclopropyl]-6-fluoro-~ {N}-[(3~{S},4~{S})-4-fluoro-3-piperidyl]-2-[(2~{R},5~{R},7~{R})-2-methyl-4-oxo-3,13,19-triazatetracyclo[11.5.2.0^{5,7}.0^{16,20}]icosa-1(19),14,16(20),17-tetraen-14-yl]benzimidazole-5-carboxamide]
IC50: 51 nM

C[C@H]1NC(=O)[C@@H]2C[C@H]2CCCCCn2c(-c3nc4cc(C(=O)N[C@H]5CNCC[C@@H]5F)c(F)cc4n3[C@H]3C[C@H]3C(F)F)cc3ccc1nc32 (single isomer, unassigned) [Example 412, 1-[(1~{S},2~{R})-2-(difluoromethyl)cyclopropyl]-6-fluoro-~ {N}-[(3~{S),4~{S})-4-fluoro-3-piperidyl]-2-[(2~{R},5~{R},7~{R})-2-methyl-4-oxo-3,13,19-triazatetracyclo[11.5.2.0^{5,7}.0^{16,20}]icosa-1(19),14,16(20),17-tetraen-14-yl]benzimidazole-5-carboxamide]
IC50: 42 nM
